Reference: patent publication EP0748335B1, “ANTIBIOTIC STALOBACINS” (SHIONOGI & CO., LTD., priority 1994, dated 1995)
≈ marks a conversion by molar mass, not a printed value.

How the values were obtained:
S. aureus 3626 (MRSA) = assay: In vitro antibacterial activity, agar dilution method; type: cell-based; conditions: 10^6 cfu/ml
Description: (§1) Antibacterial activity in vitro of antibiotic stalobacins H and I obtained in Example 1 was assayed by the agar dilution method.

S. aureus FDA JC-1 = assay: as above; type: cell-based; conditions: 10^6 cfu/ml
Description: as §1

S. faecalis SR1004 = assay: as above; type: cell-based; conditions: 10^6 cfu/ml
Description: as §1

E. faecalis SR1004 [1] = assay: Protective effect in systemically infected mice; type: in vivo; conditions: mice challenged intraperitoneally with E. faecalis SR1004; subcutaneous administration one hour after challenge; survival ratio on 7th day
Description: (§2) Antibacterial activity in vivo of stalobacin I was assayed. Mice were intraperitoneally challenged with infectious bacteria. One hour after the challenge, the test compound was subcutaneously administered. ED50 values was calculated on the basis of survival ratio on 7th day after the challenge. MIC was determined according to the agar dilution method.

[2] = tested on: S. aureus SR3637 (H-MRSA); assay: Protective effect in systemically infected mice; type: in vivo; conditions: mice challenged intraperitoneally with S. aureus SR3637 (H-MRSA); subcutaneous administration one hour after challenge; survival ratio on 7th day
Description: as §2

S. pneumoniae Type I [3] = assay: Protective effect in systemically infected mice; type: in vivo; conditions: mice challenged intraperitoneally with S. pneumoniae Type I; subcutaneous administration one hour after challenge; survival ratio on 7th day
Description: as §2

E. faecalis SR1004 [4] = type: cell-based
Description: as §2

[5] = tested on: S. aureus SR3637 (H-MRSA); type: cell-based
Description: as §2

S. pneumoniae Type I [6] = type: cell-based
Description: as §2

MIC (E. faecalis SR1004 [4]): 0.2 µg/mL (≈ 151 nM) | MIC [5]: 0.012 µg/mL (≈ 9.05 nM) | MIC (S. pneumoniae Type I [6]): 6 ng/mL (≈ 4.53 nM)
Compound: CCCCCC/C=C\CCCCC[C@@H]1C[C@H]1/C=C/C(O)C(=O)N[C@H](C(=O)N(C)[C@@H](CC(=O)O)C(=O)N(COC(C)(CC)C(NC(=O)C(NC(=O)[C@@H](N)CC(=O)O)C(O)C(O)CNC(=N)N)C(=O)NCC(=O)N[C@@H](CO)C(=O)O)[C@@]12C[C@@H]1CN(C(=N)N)C2=O)[C@H](O)C(=O)O (stereo partly drawn) [Stalobacin I]
Antibacterial activity in vitro (S. aureus 3626 (MRSA)): 0.1 µg/mL | Antibacterial activity in vitro (S. aureus FDA JC-1): 0.05 µg/mL | Antibacterial activity in vitro (S. faecalis SR1004): 0.2 µg/mL | ED50 (E. faecalis SR1004 [1]): 1.50 mg/kg | ED50 [2]: 0.12 mg/kg | ED50 (S. pneumoniae Type I [3]): 0.046 mg/kg
